# Data from patent publication US12558322B2, “Control method of local release for target compounds by using patterning hydrogel to nanoporous membrane” (KNU-Industry Cooperation Foundation, priority 2018, dated 2026).
# How the values were obtained:
# YD-10B cells [1] = assay: Live/dead assay of YD-10B cells on 5-FU containing HAMA hydrogel arrays; type: cell-based, human; conditions: 5 days
# Protocol: (§1) To estimate the rate of apoptosis of tumor cells at a controlled release anticancer drug rate, YD-10B cells derived from human oral squamous cancer were cultured on a 15% (w/v) HAMA hydrogel-arrayed amphipathic membrane. The amphipathic membrane was prepared at a size of 20 mm×20 mm and was fixed at the bottom of the cell culture dish with the use of PDMS blocks as supporters to prevent floating in the culture media. Overall, YD-10B cells (100 μL, cell density of 1.0×10^6 cells/mL) were seeded on the HAMA hydrogel-arrayed amphipathic membrane that contained 5-FU. As a control group, YD-10B cells without 5-FU were seeded on the array. The cells were cultured in culture media [RPMI (RPMI 1640 medium, HEPES)] (Gibco, CA, USA) with 10% fetal bovine serum (FBS) (Gibco) and 1% penicillin/streptomycin (Gibco) in an incubator (MCO-18AIC, Sanyo, Japan) at 5% CO2 and 37.5° C. After 5 days, the live/dead assay [live/dead viability/cytotoxicity kit (Invitrogen, MA, USA)] was conducted to evaluate anticancer performance. The solution for the live/dead assay was mixed with 20 μL of Ethidium Homodimer-1 (EthD-1) and 5 μL of calcein-AM in 10 mL of DPBS in the dark room. The culture media were eliminated using a micropipette, and the residual media were washed twice by DPBS. The staining solution was added on the arrayed amphipathic membrane and incubated for 40 min. The viability of the YD-10B cells on the amphipathic membrane was evaluated by a fluorescent microscope (Zeiss, Germany). The cytoplasm of live cells was stained with calcein-AM (green fluorescence, excitation wavelength: 488 nm/emission wavelength: 515 nm), while the DNA of dead cells was stained with EthD-1 as fluorescence red (excitation: 570 nm/emission: 602 nm). Additionally, the actin filaments of cells were stained to verify the colony formations of tumor cells. For the fixation of cultured cells, the membrane was washed with DPBS and was immersed in 4% paraformaldehyde (PFA) for 15 min. Triton X-100 was used for permeabilization for 5 min at −20° C. on a PFA-immersed membrane. […]
# YD-10B cells [2] = assay: Actin filament staining of YD-10B cells (colony formation); type: cell-based, human; conditions: 5-FU encapsulated in HAMA hydrogel array, 5 days
# Protocol: as §1, with “The solution for the live/dead assay was mixed with 20 μL of Ethidium Homodimer-1 (EthD-1) and 5 μL of calcein-AM in 10 mL of DPBS in the dark room. The culture media were eliminated using a micropipette, and the residual media were washed twice by DPBS. The staining solution was added on the arrayed amphipathic membrane and incubated for 40 min.” left out, “nm).” for “nm). Additionally, the actin filaments of cells were stained to verify the colony formations of tumor cells. For the fixation of cultured cells, the membrane was washed with DPBS and was immersed in 4% paraformaldehyde (PFA) for 15 min. Triton X-100 was used for permeabilization for 5 min at −20° C. on a PFA-immersed membrane.”
smiles,measurement,setting,value
O=c1[nH]cc(F)c(=O)[nH]1 [5-FU],reduction of adhesion rate (calcein-AM expression area),"YD-10B cells [1]; 5-FU encapsulated in HAMA hydrogel array, vs without 5-FU",approximately 48%
same,viable cells (live/dead assay),YD-10B cells [1]; HAMA hydrogel arrays containing 5-FU,only a few viable cells were visible
same,adhesion area (calcein-AM),YD-10B cells [1]; cultured with 5-FU in HAMA hydrogel array,"approximately 19,321 μm^2"
same,cell growth and colony formation,YD-10B cells [2],can inhibit the growth and proliferation of cells
